Test results: paper PMC8222254, “Self-assembly of an anion receptor with metal-dependent kinase inhibition and potent in vitro anti-cancer properties” (Nature Communications, 2021)
Values joined by “and” are separate entries in the source; they are usually repeats but may differ in a detail not shown here. Equal values may be shown once.

Key:
Experiment in all cases: Kinase inhibition screen, cell-free 33P ATP assay at 10 μM
Type in all cases: biochemical
[1] = target: T1, 140 purified human kinases (Homo sapiens, UniProt O15530)
T1 sequence (O15530 1-556): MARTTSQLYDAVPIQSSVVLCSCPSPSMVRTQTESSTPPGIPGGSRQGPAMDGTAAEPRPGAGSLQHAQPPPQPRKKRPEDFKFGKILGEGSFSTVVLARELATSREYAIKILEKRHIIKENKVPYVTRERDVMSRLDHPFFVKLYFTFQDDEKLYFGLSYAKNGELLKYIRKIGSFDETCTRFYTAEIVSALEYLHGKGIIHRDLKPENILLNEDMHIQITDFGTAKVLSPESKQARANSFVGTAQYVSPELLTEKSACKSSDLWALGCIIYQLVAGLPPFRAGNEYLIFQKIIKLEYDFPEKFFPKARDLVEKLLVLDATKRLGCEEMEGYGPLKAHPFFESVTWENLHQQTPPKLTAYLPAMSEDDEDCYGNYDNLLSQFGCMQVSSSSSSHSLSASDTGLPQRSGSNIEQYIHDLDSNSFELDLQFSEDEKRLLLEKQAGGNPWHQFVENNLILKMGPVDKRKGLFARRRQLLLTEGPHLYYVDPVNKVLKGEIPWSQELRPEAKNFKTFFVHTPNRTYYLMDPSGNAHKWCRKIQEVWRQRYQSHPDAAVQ
Method in brief: (§1)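 Radiometric ^33P ATP cell-free format with purified enzymes; both complexes run at 10 μM in duplicate, results plotted on a kinome map via HGNC symbols.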

[2] = target: T2, 140 purified human kinases (Homo sapiens, UniProt O75385)
T2 sequence (O75385 1-1050): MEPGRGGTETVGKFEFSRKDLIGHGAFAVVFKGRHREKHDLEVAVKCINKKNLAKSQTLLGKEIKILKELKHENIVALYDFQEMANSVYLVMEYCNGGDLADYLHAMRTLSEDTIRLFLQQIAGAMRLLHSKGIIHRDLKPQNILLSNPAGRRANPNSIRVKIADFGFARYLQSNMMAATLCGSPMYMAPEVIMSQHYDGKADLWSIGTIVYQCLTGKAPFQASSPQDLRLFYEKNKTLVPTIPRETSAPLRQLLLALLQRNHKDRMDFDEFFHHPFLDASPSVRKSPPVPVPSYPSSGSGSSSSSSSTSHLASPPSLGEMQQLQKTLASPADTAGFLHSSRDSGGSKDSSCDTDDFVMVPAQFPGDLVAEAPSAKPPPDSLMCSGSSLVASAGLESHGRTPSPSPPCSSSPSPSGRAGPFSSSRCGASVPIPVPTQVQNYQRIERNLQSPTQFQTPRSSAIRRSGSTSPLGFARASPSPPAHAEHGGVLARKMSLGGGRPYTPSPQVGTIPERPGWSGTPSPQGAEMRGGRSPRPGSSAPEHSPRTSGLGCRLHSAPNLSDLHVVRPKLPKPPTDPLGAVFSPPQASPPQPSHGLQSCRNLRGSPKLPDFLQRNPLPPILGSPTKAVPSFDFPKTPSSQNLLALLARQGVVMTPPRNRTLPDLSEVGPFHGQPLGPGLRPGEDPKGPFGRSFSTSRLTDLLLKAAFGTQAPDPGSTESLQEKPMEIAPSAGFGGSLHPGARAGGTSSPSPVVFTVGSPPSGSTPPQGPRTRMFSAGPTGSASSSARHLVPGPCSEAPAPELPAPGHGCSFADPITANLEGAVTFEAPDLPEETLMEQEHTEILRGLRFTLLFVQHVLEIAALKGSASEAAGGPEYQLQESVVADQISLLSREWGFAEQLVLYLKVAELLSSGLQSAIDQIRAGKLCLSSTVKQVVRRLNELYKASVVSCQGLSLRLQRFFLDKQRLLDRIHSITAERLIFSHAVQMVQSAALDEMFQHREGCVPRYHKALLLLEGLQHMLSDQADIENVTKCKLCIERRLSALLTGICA
Method in brief: as §1

[3] = target: 140 purified human kinases (Homo sapiens, UniProt P04629); conditions: TrkA
Method in brief: as §1

[4] = target: 140 purified human kinases (Homo sapiens, UniProt Q9P286); conditions: for % Activity Run 1 / % Activity Run 2: 10 µM
Method in brief: as §1

Sequence of 140 purified human kinases (Homo sapiens, UniProt Q9P286) (Q9P286 whole entry): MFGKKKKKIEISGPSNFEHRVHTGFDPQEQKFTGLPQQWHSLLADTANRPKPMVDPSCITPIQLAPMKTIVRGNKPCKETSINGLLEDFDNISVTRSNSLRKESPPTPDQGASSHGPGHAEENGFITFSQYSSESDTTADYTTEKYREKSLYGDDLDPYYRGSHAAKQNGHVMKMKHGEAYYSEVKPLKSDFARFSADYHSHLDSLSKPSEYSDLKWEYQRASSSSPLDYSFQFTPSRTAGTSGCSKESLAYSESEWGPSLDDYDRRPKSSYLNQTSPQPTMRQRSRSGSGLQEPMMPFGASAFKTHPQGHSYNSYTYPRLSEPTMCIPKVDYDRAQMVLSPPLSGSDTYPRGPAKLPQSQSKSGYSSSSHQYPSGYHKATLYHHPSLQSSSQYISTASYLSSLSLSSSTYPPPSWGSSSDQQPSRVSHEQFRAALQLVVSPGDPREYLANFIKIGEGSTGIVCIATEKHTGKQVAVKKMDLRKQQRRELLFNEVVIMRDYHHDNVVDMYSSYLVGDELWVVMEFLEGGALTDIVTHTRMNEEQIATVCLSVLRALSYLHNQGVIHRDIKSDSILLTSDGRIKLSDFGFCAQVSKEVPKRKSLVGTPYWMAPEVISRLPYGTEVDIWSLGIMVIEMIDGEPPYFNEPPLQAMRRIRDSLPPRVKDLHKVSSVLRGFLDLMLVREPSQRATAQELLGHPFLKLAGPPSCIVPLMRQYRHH
Sequence of 140 purified human kinases (Homo sapiens, UniProt P04629) (P04629 33-796): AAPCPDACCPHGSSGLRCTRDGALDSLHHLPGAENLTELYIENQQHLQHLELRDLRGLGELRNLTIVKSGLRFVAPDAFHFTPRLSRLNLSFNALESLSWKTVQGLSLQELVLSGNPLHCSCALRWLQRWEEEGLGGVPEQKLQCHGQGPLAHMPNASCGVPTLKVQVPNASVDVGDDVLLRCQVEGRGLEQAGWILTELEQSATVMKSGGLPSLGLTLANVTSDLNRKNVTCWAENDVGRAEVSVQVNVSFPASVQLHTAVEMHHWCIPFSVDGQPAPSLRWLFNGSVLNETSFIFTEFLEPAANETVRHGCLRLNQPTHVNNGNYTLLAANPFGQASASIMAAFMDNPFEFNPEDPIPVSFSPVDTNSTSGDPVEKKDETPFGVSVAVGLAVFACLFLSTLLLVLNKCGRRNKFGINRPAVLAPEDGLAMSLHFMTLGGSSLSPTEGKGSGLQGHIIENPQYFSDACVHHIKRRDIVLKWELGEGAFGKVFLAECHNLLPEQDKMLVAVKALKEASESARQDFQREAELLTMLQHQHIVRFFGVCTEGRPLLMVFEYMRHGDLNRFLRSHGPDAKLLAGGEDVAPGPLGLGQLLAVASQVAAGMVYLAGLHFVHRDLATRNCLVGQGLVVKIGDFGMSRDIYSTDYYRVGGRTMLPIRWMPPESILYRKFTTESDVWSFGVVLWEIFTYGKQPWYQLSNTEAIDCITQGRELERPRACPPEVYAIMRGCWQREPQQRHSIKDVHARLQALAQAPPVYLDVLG

`[Cu+2].[Cu+2].[Cu+2].c1ccc(-c2csc(NCCN(CCNc3nc(-c4ccccn4)cs3)CCNc3nc(-c4ccccn4)cs3)n2)nc1.c1ccc(-c2csc(NCCN(CCNc3nc(-c4ccccn4)cs3)CCNc3nc(-c4ccccn4)cs3)n2)nc1` [[L2Cu3]6+] was tested, and the “% Activation, Mean value” ([1]; PDK1) was 6.45%, the “% Inhibition Run 1” value ([1]; PDK1) was 12.4% and the “% Inhibition Run 2” value ([1]; PDK1) was -25.3%. The “% Inhibition, Mean” value ([1]; PDK1) was -6.45%, the mean % activity ([1]; PDK1) was 106% and the “% activity” value ([1]; PDK1, Run 1) was 87.6%. For the same compound, the “% activity” value ([1]; PDK1, Run 2) was 125.3%, the “% Inhibition Run 1” value ([2]; ULK1) was 75.8% and the “% Inhibition Run 2” value ([2]; ULK1) was 76.3%. For the same compound, the “% Inhibition, Mean” value ([2]; ULK1) was 76%, the mean % activity ([2]; ULK1) was 24% and the “% activity” value ([2]; ULK1, Run 1) was 24.2%. The “% activity” value ([2]; ULK1, Run 2) was 23.7%, the “% Inhibition Run 1” value [3] was 78.1% and the “% Inhibition Run 2” value [3] was 61.2%. The “% Inhibition, Mean” value [3] was 70%, the mean % activity [3] was 30% and the “% activity” value ([3]; Run 1) was 21.9%. For the same compound, the “% activity” value ([3]; Run 2) was 38.8%, the “% Activation, Mean value” ([4]; PAK5) was 10% and the “% Inhibition Run 1” value ([4]; PAK5) was -1.8%. The “% Inhibition Run 2” value ([4]; PAK5) was -17.5%, the “% Inhibition, Mean” value ([4]; PAK5) was -10% and the mean % activity ([4]; PAK5) was 110%. For the same compound, the “% activity” value ([4]; PAK5, Run 1) was 101.8%, the “% activity” value ([4]; PAK5, Run 2) was 117.5% and the “% Activity Run 1” value ([4]; PAK5) was 101.80%. The “% Activity Run 2” value ([4]; PAK5) was 117.50%.

`CC(=O)[O-].CC(=O)[O-].CC(=O)[O-].CC(=O)[O-].CC(=O)[O-].CC(=O)[O-].[Zn+2].[Zn+2].[Zn+2].c1ccc(-c2csc(NCCN(CCNc3nc(-c4ccccn4)cs3)CCNc3nc(-c4ccccn4)cs3)n2)nc1.c1ccc(-c2csc(NCCN(CCNc3nc(-c4ccccn4)cs3)CCNc3nc(-c4ccccn4)cs3)n2)nc1` [[L2Zn3]6+] was tested, and the “% Activation, Mean value” ([1]; PDK1) was 46%, the “% Inhibition, Mean” value ([1]; PDK1) was -46% and the mean % activity ([1]; PDK1) was 146%. For the same compound, the “% Activity Run 1” value ([1]; PDK1, 10 µM) was 131.0%, the “% Activity Run 2” value ([1]; PDK1, 10 µM) was 160.0% and the “% activity” value ([1]; PDK1, duplicate runs) was 131% and 160%. The “% Inhibition, Mean” value ([2]; ULK1) was 30%, the mean % activity ([2]; ULK1) was 70% and the “% activity” value ([2]; ULK1, duplicate runs) was 58% and 82%. For the same compound, the “% Inhibition, Mean” value [3] was 87%, the “% Inhibition, Run 1 / Run 2” value [3] was 88% and 86% and the mean % activity [3] was 13%. The “% Activity inhibition Mean” value ([3]; 10 µM) was 86.5%, the “% Activity inhibition Run 1” value ([3]; 10 µM) was 88% and the “% Activity inhibition Run 2” value ([3]; 10 µM) was 85%. The “% Activity remaining Run 1” value ([3]; 10 µM) was 12%, the “% Activity remaining Run 2” value ([3]; 10 µM) was 15% and the “% activity” value ([3]; duplicate runs) was 12% and 15%. For the same compound, the “% Activation, Mean value” ([4]; PAK5) was 20%, the “% Inhibition, Mean” value ([4]; PAK5) was -20% and the mean % activity ([4]; PAK5) was 120%. For the same compound, the “% Activity Run 1” value ([4]; PAK5) was 110.0%, the “% Activity Run 2” value ([4]; PAK5) was 130.0% and the “% activity” value ([4]; PAK5, duplicate runs) was 110% and 130%.
